US20080274913A1, “Multiplex Array Useful for Assaying Protein-Protein Interaction” (priority 2005, published 2008)
Read-outs that look alike come from different tables or passages of the source. Blank lines part the entries; values can stand above or below the molecule they belong to.

How the values were obtained:
[1] = target: CCR5-tTA fusion construct containing the low efficiency cleavage site (UniProt P51681); test: cell-based or functional assay
[2] = target: chemokine (C-C motif) receptor 5 (CCR5) (Homo sapiens, UniProt P51681); test: CCR5-tTA reporter assay in clone 34 cells; type: cell-based; conditions: 1 μg/ml; low efficiency cleavage site
Text: α Constructs were also made to establish an assay for the G protein coupled chemokine (C—C motif) receptor 5 (CCR5). The CCR5 coding region (Genbank Accession Number: NM_000579) (SEQ ID NO: 32) was modified to place Not I site at the 5′ end and replace the stop codon with a BamHI site using PCR with the primers
The first modified coding region was cut with ClaI and BamHI and the second was cut with BsaI and ClaI. Both fragments were ligated into the AVPR2-tTA constructs described supra, which had been cut with EcoRI and BamHI. This replaced the entire coding sequence of AVPR2 with the coding sequence of CCR5.
Assays were carried out using 1 μg/ml “Regulated on Activation, Normal T-Cell Expressed and Secreted” (RANTES), a known agonist for CCR5.

[3] = target: human Type I Interferon Receptor (IFNAR1-TEV-NIa-Pro cleavage (L)-tTA with IFNAR2.2-TEV, in HTL5B8.1 cells) (human; tobacco etch virus) (UniProt P17181); test: cell-based or functional assay
ADRB1 = ADRB1 (Homo sapiens, UniProt P08588); conditions: for inhibition of receptor response by antagonist: FIG. 11F
ADRB2 [4] = target: T1, ADRB2 (Homo sapiens, UniProt P07550)
ADRA2C = target: T2, ADRA2C (Homo sapiens, UniProt P18825)
T2 sequence (P18825 1-462): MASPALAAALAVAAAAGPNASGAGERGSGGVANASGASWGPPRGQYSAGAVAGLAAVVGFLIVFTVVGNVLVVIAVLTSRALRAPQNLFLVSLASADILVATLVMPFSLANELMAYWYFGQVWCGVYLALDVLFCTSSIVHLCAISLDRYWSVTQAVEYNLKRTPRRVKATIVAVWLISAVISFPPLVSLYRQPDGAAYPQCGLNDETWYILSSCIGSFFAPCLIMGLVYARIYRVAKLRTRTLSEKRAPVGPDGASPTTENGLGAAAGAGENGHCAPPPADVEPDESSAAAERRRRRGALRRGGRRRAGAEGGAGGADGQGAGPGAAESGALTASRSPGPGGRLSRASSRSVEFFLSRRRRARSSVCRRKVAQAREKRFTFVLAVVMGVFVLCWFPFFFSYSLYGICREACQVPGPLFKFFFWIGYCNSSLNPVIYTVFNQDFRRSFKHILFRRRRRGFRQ

[5] = target: epidermal growth factor receptor (EGFR) (Homo sapiens, UniProt P00533); test: EGFR-tTA / PLC Gamma1-TEV luciferase reporter assay in HTL5B8.1 cells; type: cell-based; conditions: 100 ng/ml; six hours
[6] = target: T3, human Type I Interferon Receptor (Homo sapiens, UniProt P17181+P48551); test: IFNAR1-tTA / IFNAR2.2-TEV luciferase reporter assay in HTL5B8.1 cells; type: cell-based; conditions: 5000 U/ml, 18-20 hours
T3 sequence (P17181 28-557): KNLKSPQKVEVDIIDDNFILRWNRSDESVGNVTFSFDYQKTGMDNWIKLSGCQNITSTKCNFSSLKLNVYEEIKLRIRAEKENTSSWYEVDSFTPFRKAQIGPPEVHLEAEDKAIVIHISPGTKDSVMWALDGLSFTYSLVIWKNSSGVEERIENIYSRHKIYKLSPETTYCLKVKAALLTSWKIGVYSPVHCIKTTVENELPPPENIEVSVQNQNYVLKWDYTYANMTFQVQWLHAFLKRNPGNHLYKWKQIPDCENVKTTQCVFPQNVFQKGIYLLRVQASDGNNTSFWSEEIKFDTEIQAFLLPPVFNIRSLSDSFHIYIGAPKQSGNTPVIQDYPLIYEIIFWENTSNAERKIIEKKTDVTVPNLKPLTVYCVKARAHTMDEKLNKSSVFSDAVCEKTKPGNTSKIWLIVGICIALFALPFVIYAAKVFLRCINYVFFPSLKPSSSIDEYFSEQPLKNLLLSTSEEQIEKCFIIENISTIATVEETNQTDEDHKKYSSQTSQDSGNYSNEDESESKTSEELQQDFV
T3 sequence (P48551 27-515): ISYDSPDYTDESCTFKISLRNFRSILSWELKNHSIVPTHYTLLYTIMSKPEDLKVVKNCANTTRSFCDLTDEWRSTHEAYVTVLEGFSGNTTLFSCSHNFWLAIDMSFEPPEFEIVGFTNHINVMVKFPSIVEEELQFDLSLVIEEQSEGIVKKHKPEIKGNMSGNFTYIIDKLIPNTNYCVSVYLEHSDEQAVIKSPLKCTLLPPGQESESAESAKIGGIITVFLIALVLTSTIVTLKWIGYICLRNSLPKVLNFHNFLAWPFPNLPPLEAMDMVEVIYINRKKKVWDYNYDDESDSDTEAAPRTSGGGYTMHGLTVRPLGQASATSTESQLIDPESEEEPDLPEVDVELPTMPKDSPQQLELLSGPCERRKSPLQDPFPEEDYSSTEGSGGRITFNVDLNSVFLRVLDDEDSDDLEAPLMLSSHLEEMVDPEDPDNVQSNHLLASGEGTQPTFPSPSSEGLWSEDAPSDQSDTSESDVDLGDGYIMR

[7] = target: T3, human Type I Interferon Receptor; test: IFNAR1-GAL4-NF-κB / IFNAR2.2-TEV luciferase reporter assay in CHO-K1 cells; type: cell-based; design: expressed in transfected cells; host or cells: CHO-K1; CMV-STAT1, CMV-STAT2 and pFR-Luc co-transfected
ADRB2 [8] = target: T1, ADRB2; type: cell-based; conditions: ADRB2-tTA with low efficiency cleavage site; clone 41 cells
[9] = target: serotonin receptor 1a (HTR1A) (Homo sapiens, UniProt P08908); type: cell-based; conditions: 10 μM; low efficiency cleavage site
[10] = target: DRD2-GRPR 42aa Tail-tTA fusion construct containing the low efficiency cleavage site (UniProt P14416); test: cell-based or functional assay
[11] = target: EGFR-TEV-NIa-Pro cleavage (Leu)-tTA (human) (UniProt P00533); test: cell-based or functional assay
[12] = target: dopamine 2 receptor (DRD2) (Homo sapiens, UniProt P14416); conditions: 10 μM, medium efficiency cleavage site
DRD2 [13] = target: T4, DRD2 (Homo sapiens, UniProt P14416); conditions: 10 μM; DRD2-AVPR2 Tail-tTA, low efficiency cleavage site
DRD2 [14] = target: DRD2 (Homo sapiens, UniProt P14416+P30550); conditions: μM dopamine; DRD2-GRPR 42aa Tail-tTA, low efficiency cleavage site
DRD2 [15] = target: T4, DRD2; conditions: 1 μM each agonist; mixed clone 41 and clone 1H10 cells; about 24 hours
ADRB2 [16] = target: T1, ADRB2; conditions: 1 μM each agonist; mixed clone 41 and clone 1H10 cells; about 24 hours
ADRA1A = ADRA1A (Homo sapiens, UniProt P35348); conditions: 10 μM, low efficiency cleavage site
ADRA2A = target: T5, ADRA2A (Homo sapiens, UniProt P08913); conditions: antagonist experiments, FIGS. 11F to 11J
T5 sequence (P08913 1-465): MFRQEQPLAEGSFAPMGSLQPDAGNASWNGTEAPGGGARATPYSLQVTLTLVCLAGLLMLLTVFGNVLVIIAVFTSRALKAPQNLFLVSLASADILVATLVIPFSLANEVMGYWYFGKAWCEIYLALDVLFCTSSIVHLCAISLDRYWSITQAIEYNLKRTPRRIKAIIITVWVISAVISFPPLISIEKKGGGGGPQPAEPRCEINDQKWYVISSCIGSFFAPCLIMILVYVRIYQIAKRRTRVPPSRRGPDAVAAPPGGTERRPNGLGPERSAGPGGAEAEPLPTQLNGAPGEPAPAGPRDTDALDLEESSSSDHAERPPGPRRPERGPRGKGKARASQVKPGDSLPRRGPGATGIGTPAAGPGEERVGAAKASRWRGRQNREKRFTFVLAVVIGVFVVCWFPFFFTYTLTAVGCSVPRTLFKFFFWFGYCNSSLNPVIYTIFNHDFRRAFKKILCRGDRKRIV

ADRA2B = target: T6, ADRA2B (Homo sapiens, UniProt P18089); conditions: antagonist experiments, FIGS. 11F to 11J
T6 sequence (P18089 1-450): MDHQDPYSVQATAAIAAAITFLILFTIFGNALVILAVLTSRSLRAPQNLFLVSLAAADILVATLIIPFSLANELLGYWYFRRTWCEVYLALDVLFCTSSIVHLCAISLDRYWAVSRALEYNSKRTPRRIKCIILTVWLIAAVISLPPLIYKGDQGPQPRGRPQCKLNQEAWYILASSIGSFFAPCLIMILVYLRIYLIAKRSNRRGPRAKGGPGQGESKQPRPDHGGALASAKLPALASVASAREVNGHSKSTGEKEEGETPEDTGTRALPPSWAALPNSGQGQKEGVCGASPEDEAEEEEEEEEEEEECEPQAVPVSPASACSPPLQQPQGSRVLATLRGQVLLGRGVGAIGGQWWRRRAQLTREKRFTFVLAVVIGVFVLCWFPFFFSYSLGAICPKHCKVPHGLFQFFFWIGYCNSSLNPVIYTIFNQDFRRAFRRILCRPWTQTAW

Chain of ADRB1 (P08588 whole entry): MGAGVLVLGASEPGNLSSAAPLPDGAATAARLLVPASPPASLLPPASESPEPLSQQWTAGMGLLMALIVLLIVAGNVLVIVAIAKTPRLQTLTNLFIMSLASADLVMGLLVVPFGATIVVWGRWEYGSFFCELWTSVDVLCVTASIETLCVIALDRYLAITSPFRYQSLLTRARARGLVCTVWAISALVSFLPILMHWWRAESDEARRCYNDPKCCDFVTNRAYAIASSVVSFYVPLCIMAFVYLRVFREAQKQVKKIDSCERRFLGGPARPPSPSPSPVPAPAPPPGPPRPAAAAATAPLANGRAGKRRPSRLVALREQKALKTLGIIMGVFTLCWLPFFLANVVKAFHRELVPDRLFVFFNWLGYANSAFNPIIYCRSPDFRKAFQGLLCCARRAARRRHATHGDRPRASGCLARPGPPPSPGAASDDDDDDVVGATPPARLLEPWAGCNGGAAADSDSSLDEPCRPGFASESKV
Chain of dopamine 2 receptor (DRD2) (P14416 whole entry): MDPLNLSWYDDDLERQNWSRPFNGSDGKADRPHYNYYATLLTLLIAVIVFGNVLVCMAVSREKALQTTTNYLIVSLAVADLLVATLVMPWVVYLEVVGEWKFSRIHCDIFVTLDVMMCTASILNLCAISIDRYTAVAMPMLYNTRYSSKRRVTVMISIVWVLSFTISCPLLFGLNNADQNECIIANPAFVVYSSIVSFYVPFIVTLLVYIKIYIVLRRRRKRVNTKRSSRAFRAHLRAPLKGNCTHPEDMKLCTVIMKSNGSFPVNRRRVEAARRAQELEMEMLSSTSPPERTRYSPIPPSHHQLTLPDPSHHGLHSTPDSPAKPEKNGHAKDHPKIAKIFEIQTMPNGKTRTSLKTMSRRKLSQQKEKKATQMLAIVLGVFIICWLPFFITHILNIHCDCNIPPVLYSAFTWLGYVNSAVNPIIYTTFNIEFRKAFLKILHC
Chain of CCR5-tTA fusion construct containing the low efficiency cleavage site (P51681 whole entry, the tested form may be a part): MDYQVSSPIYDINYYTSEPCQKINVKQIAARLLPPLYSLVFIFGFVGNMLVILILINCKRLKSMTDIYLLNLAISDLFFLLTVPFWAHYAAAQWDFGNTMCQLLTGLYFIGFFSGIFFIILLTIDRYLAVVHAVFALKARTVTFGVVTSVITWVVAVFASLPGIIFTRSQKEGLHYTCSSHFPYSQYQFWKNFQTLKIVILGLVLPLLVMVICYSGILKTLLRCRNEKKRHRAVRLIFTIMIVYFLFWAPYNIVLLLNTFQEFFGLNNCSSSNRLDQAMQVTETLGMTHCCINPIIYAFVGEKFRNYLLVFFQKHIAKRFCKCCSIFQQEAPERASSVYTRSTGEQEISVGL
Chain of DRD2-GRPR 42aa Tail-tTA fusion construct containing the low efficiency cleavage site (P14416 other isoform, or with tags, fused parts or gaps): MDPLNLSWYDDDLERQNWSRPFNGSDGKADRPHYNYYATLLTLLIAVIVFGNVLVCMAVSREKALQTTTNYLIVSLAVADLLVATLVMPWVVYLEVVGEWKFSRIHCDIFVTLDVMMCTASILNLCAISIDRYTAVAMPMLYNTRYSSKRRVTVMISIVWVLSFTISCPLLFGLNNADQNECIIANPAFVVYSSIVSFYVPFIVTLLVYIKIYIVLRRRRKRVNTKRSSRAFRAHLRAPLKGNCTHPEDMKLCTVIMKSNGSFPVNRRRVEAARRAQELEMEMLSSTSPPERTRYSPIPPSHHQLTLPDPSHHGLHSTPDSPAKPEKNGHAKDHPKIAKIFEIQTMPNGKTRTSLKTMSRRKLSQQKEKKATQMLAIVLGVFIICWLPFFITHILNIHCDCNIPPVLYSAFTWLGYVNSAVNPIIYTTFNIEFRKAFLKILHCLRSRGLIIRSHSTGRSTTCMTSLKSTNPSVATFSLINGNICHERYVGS

Molecule: human interferon-alpha (ligand)
- fold increase in reporter gene activity (luciferase), 5000 U/ml IFN-α [3]: 15 fold

Molecule: Brc1c(NC2=NCCN2)ccc2nccnc12 [UK14,304]
- agonist effect on the receptor (ADRB1; any concentration used, FIG. 11A): no effect
- agonist effect on the receptor (ADRB2 [4]; any concentration used, FIG. 11B): no effect
- agonist response, UK14,304 compared with isoproterenol (ADRA2C; varying concentrations of agonist): respond to much lower concentration of UK14,304 than isoproterenol

Molecule: human interferon-beta (from UniProt P01574 22-187) (ligand)
- fold increase in reporter gene activity (luciferase), 5000 U/ml IFN-β [3]: 10 fold

Molecule: IFN-α
- increase in reporter gene activity [6]: 15 fold
- increase in reporter gene activity ([7]; 5000 U/ml, 6 hours, CHO-K1 cells with reporter, IFNAR and STAT constructs): 3 fold
- effect on reporter gene activity ([7]; CHO-K1 cells transfected with the reporter and control plasmids): no effect

Molecule: Nc1ncnc2c1ncn2[C@@H]1O[C@H](COP(=O)(O)OP(=O)(O)OP(=O)(O)O)[C@@H](O)[C@H]1O [ATP]
- induction of reporter gene activity by an agonist of other, endogenous GPCRs (P2Y1, P2Y2) (ADRB2 [8]): Stimulation of another GPCR pathway was irrelevant

Molecule: ARRB2-TEV-NIa protease fusion (from UniProt P32121 1-409)
- fold increase in reporter gene activity (luciferase), dopamine [10]: 30 fold

Molecule: human Transforming Growth Factor-Alpha (from UniProt P01135 40-89) (ligand)
- fold increase of luciferase reporter gene activity, 100 ng/ml human Transforming Growth Factor-Alpha [11]: 18.3 fold

Molecule: Cl.NCCc1ccc(O)c(O)c1 [dopamine, dopamine HCl]
- maximal response, induction of reporter gene expression over the background ([12]; ARRB1-TEV-NIa protease fusion): 2.1 fold
- maximal response, induction of reporter gene expression over the background ([12]; ARRB2-TEV-NIa protease fusion): 2.7 fold
- maximal response, induction of reporter gene expression over the background (DRD2 [13]): approximately 60 fold
- maximal response, increase in reporter gene activity (DRD2 [14]): approximately 30 fold
- induction of luciferase activity (DRD2 [15]): 3.5 fold
- induction of beta-galactosidase reporter gene activity (ADRB2 [16]): remained unchanged

Molecule: CNC[C@H](O)c1ccc(O)c(O)c1 [epinephrine]
- maximal response, induction of reporter gene expression over the background (ADRA1A; ADRA1A-GRPR 23aa Tail-tTA): approximately 102 fold
- maximal response, increase in reporter gene activity (ADRA1A; ADRA1A-GRPR 42aa Tail-tTA): approximately 14 fold

Molecule: C=CCc1ccccc1OCC(O)CNC(C)C (centres unmarked) [alprenolol]
- inhibition of receptor response by antagonist (ADRA2A): only a modest inhibitory effect at the highest concentrations tested
- inhibition of receptor response by antagonist (ADRA2B): only a modest inhibitory effect at the highest concentrations tested
- inhibition of receptor response by antagonist (ADRB1): markedly inhibited
- inhibition of receptor response by antagonist (ADRA2C; antagonist experiments, FIGS. 11F to 11J): only a modest inhibitory effect at the highest concentrations tested

Second part, led by results:

- maximal fold induction of reporter gene expression over the background, 1 µg/ml RANTES [1]: 40 fold
Molecule: Regulated on Activation, Normal T-Cell Expressed and Secreted (RANTES) (from UniProt P13501 24-91) (ligand)

- maximal response, induction of reporter gene expression over the background [2]: approximately 40 fold
Molecule: RANTES: Regulated on Activation, Normal T-Cell Expressed and Secreted, a known agonist for CCR5

- inhibition of receptor response by antagonist (ADRB1): no effect
Molecule: COC(=O)[C@@H]1[C@H]2C[C@H]3c4[nH]c5ccccc5c4CCN3C[C@@H]2CC[C@@H]1O [yohimbine]
- inhibition of receptor response by antagonist (ADRB2 [4]; FIG. 11G): inhibition at only the very highest concentrations tested

- increase of luciferase reporter gene activity [5]: 18.3 fold
Molecule: human Transforming Growth Factor—Alpha: human Transforming Growth Factor-Alpha, EGFR agonist

- maximal response, induction of reporter gene expression over background level [9]: 4.6 fold
Molecule: NCCc1c[nH]c2ccc(O)cc12 [serotonin]
